In brackets after ≈: the same amount, converted by molar mass.

Holding throughout (assay type): functional
Test [1] relates to Klebsiella pneumoniae. The experiment in a line: Antibacterial activity against beta-lactamase producing Klebsiella pneumoniae 363.
The test system of another test is Serratia marcescens. The experiment in a line: Antibacterial activity against Serratia marcescens ATCC 13880.
The next test relates to Streptococcus pneumoniae. The test is described as follows: Antibacterial activity against Streptococcus pneumoniae I.
A further test relates to Pseudomonas aeruginosa. The experiment in a line: Antibacterial activity against Pseudomonas aeruginosa 24.
The test system of a further test is Escherichia coli. The test is described as follows: Antibacterial activity against Escherichia coli NIHJ JC-2.
Another test relates to Proteus vulgaris. The test is described as follows: Antibacterial activity against Proteus vulgaris CN-329.
Another test has as its system Proteus mirabilis. The test is described as follows: Antibacterial activity against Proteus mirabilis PR-4.
Test [2] has as its system Staphylococcus aureus. The test is described as follows: Antibacterial activity against Staphylococcus aureus 209P JC-1.
The test system of test [3] is Staphylococcus aureus. The experiment in a line: Antibacterial activity against beta-lactamase producing Staphylococcus aureus C-14.
The next test concerns Enterobacter cloacae. The experiment in a line: Antibacterial activity against Enterobacter cloacae 233.
For test [4], the system named is Klebsiella pneumoniae. The experiment in a line: Antibacterial activity against Klebsiella pneumoniae.

As to `CO[C@@]1(NC(=O)[C@H](OC=O)c2ccccc2)C(=O)N2C(C(=O)O)=C(CSc3nnnn3C)CO[C@@H]21`, the minimal inhibitory concentration (MIC) (as a rule, the lowest concentration found to suppress growth) is 0.1 µg/mL (≈ 0.198 µM) against Klebsiella pneumoniae [1]; 3.1 µg/mL (≈ 6.14 µM) against Serratia marcescens; 0.2 µg/mL (≈ 0.396 µM) in the test with Streptococcus pneumoniae; over 100 µg/mL with Pseudomonas aeruginosa; 0.05 µg/mL (≈ 0.0991 µM) in the test on Escherichia coli; 0.2 µg/mL (≈ 0.396 µM) in the test on Proteus vulgaris. Further, the MIC in the test with Proteus mirabilis stood at 0.2 µg/mL (≈ 0.396 µM); with Staphylococcus aureus [2], 0.4 µg/mL (≈ 0.793 µM); against Staphylococcus aureus [3], 0.4 µg/mL (≈ 0.793 µM); in the test on Enterobacter cloacae, 3.1 µg/mL (≈ 6.14 µM); against Klebsiella pneumoniae [4], 0.1 µg/mL (≈ 0.198 µM).
Turning to `CO[C@@]1(NC(=O)C(C(=O)[O-])c2ccc(O)cc2)C(=O)N2C(C(=O)[O-])=C(CSc3nnnn3C)CO[C@@H]21.[Na+].[Na+]` (some centres not stated) [MOXALACTAM DISODIUM], the MIC in the test with Klebsiella pneumoniae [1] was determined as 0.05 µg/mL; in the test with Serratia marcescens, 0.4 µg/mL; against Streptococcus pneumoniae it was 3.1 µg/mL; in the test with Pseudomonas aeruginosa, 25 µg/mL; in the test on Escherichia coli, 0.1 µg/mL; with Proteus vulgaris, 0.1 µg/mL. Besides, the MIC against Proteus mirabilis turned out to be 0.1 µg/mL; against Staphylococcus aureus [2], 6.3 µg/mL; against Staphylococcus aureus [3], 6.3 µg/mL; in the test with Enterobacter cloacae, 0.2 µg/mL; with Klebsiella pneumoniae [4], 0.1 µg/mL.
As to `CO[C@]1(NC(=O)[C@H](OC=O)c2ccccc2)C(=O)N2C(C(=O)O)=C(CSc3nnnn3C)CS[C@@H]21`, the MIC is 0.8 µg/mL (≈ 1.54 µM) against Klebsiella pneumoniae [1]; 12.5 µg/mL (≈ 24 µM) in the test on Serratia marcescens; 1.6 µg/mL (≈ 3.07 µM) against Streptococcus pneumoniae; over 100 µg/mL with Pseudomonas aeruginosa; 1.6 µg/mL (≈ 3.07 µM) against Escherichia coli; 0.8 µg/mL (≈ 1.54 µM) with Proteus vulgaris. The MIC came out at 1.6 µg/mL (≈ 3.07 µM) against Proteus mirabilis; 0.8 µg/mL (≈ 1.54 µM) with Staphylococcus aureus [2]; 3.1 µg/mL (≈ 5.96 µM) in the test on Staphylococcus aureus [3]; 12.5 µg/mL (≈ 24 µM) against Enterobacter cloacae; 0.8 µg/mL (≈ 1.54 µM) against Klebsiella pneumoniae [4].
`Cn1nnnc1SCC1=C(C(=O)O)N2C(=O)[C@@H](NC(=O)[C@H](O)c3ccccc3)[C@H]2OC1`: the MIC was 100 µg/mL (≈ 224 µM) against Klebsiella pneumoniae [1]; 6.3 µg/mL (≈ 14.1 µM) in the test on Serratia marcescens; 0.025 µg/mL (≈ 0.056 µM) against Streptococcus pneumoniae; over 100 µg/mL with Pseudomonas aeruginosa; 0.05 µg/mL (≈ 0.112 µM) in the test on Escherichia coli; 0.1 µg/mL (≈ 0.224 µM) against Proteus vulgaris. In addition, the MIC is 0.1 µg/mL (≈ 0.224 µM) against Proteus mirabilis; 0.025 µg/mL (≈ 0.056 µM) with Staphylococcus aureus [2]; 0.4 µg/mL (≈ 0.896 µM) against Staphylococcus aureus [3]; 0.4 µg/mL (≈ 0.896 µM) against Enterobacter cloacae; 0.05 µg/mL (≈ 0.112 µM) against Klebsiella pneumoniae [4].
Take `CC(=O)OCC1=C(C(=O)O)N2C(=O)[C@@H](NC(=O)Cc3cccs3)[C@H]2SC1` [CEPHALOTHIN]: the MIC in the test on Klebsiella pneumoniae [1] is over 100 µg/mL; in the test with Serratia marcescens it was over 100 µg/mL; in the test with Streptococcus pneumoniae, 0.1 µg/mL (≈ 0.252 µM); in the test on Pseudomonas aeruginosa, over 100 µg/mL; against Escherichia coli, 6.3 µg/mL (≈ 15.9 µM); against Proteus vulgaris, 50 µg/mL (≈ 126 µM). The minimum inhibitory concentration (MIC) in the test with Proteus mirabilis was 3.1 µg/mL (≈ 7.82 µM); against Staphylococcus aureus [2] it was 0.05 µg/mL (≈ 0.126 µM); in the test with Staphylococcus aureus [3], 0.2 µg/mL (≈ 0.504 µM); against Enterobacter cloacae, over 100 µg/mL; in the test on Klebsiella pneumoniae [4] it was 0.8 µg/mL (≈ 2.02 µM).
Regarding `CC(=O)OCC1=C(C(=O)O)N2C(=O)[C@@H](NC(=O)Cc3cccs3)[C@H]2OC1`, the MIC in the test with Klebsiella pneumoniae [1] was over 100 µg/mL; in the test on Serratia marcescens, over 100 µg/mL; against Streptococcus pneumoniae, 0.025 µg/mL (≈ 0.0657 µM); with Pseudomonas aeruginosa it was over 100 µg/mL; in the test on Escherichia coli, 0.8 µg/mL (≈ 2.1 µM); in the test on Proteus vulgaris, 50 µg/mL (≈ 131 µM). Besides, the minimal inhibitory concentration (MIC) with Proteus mirabilis worked out at 0.4 µg/mL (≈ 1.05 µM); against Staphylococcus aureus [2], 0.013 µg/mL (≈ 0.0342 µM); in the test on Staphylococcus aureus [3] it was 0.1 µg/mL (≈ 0.263 µM); against Enterobacter cloacae, 100 µg/mL (≈ 263 µM); in the test with Klebsiella pneumoniae [4], 0.2 µg/mL (≈ 0.526 µM).
Consider `Cn1nnnc1SCC1=C(C(=O)O)N2C(=O)[C@@H](NC(=O)[C@H](O)c3ccccc3)[C@H]2SC1` [CEFAMANDOLE], for which the MIC is over 100 µg/mL against Klebsiella pneumoniae [1]; 50 µg/mL (≈ 108 µM) against Serratia marcescens; 0.1 µg/mL (≈ 0.216 µM) in the test on Streptococcus pneumoniae; over 100 µg/mL against Pseudomonas aeruginosa; 0.4 µg/mL (≈ 0.865 µM) with Escherichia coli; 0.8 µg/mL (≈ 1.73 µM) with Proteus vulgaris. Moreover, the MIC in the test on Proteus mirabilis was 0.8 µg/mL (≈ 1.73 µM); in the test on Staphylococcus aureus [2], 0.1 µg/mL (≈ 0.216 µM); in the test with Staphylococcus aureus [3] it was 0.4 µg/mL (≈ 0.865 µM); with Enterobacter cloacae, 3.1 µg/mL (≈ 6.7 µM); in the test with Klebsiella pneumoniae [4] it was 0.4 µg/mL (≈ 0.865 µM).

The record behind these values is ChEMBL document CHEMBL3227942, “Synthetic studies on beta-lactam antibiotics. Part 101. Synthesis of 7beta-[2-carboxy-2-(4-hydroxyphenyl)acetamido]-7alpha-methoxy-3-[[(1-methyl-1H-tetrazol-5-yl)thio]-methyl]-1-oxa-1-dethia-3-cephem-4-carboxylic acid disodium salt (6059-S) and its related 1-oxacephems” (1979).
